From a melting point compilation (Tetko et al.; mined from patent text by program, amines drawn as free bases though some values may be those of a salt)

Row | SMILES | melting point [°C]
1 | Cc1ccc(-c2cc(C(F)(F)F)n3cnc(-c4cccnc4)c3n2)cc1C(F)(F)F | 236
2 | CC12CCC(O)CC1CCC1C2CCC2(C)C1CCC2(SCc1ccccc1)SCc1ccccc1 (stereo unspecified) | 184 to 185
3 | O=C(CCCN1CCOCC1)c1ccc2c(c1)Cc1cc(C(=O)CCCN3CCOCC3)ccc1S2 | 90.5 to 91.5
4 | Cc1nc[nH]c1CSCCN=C(NC#N)NCCCCCCCCN | 122 to 124
5 | CCCN([C@H]1COc2c(F)ccc(C(N)=O)c2C1)C(C)(C)C | 70 to 75
6 | CCOC(CN1C(=O)C2=C(c3ccc(Br)cc3)N(CC(OCC)OCC)C(=O)C2=C1c1ccc(Br)cc1)OCC | 198 to 201
7 | CC(C)c1ccc2c(c1)C(N1CCN(CCCO)CC1)Cc1ccc(F)cc1S2 (stereo unspecified) | 106 to 108
8 | C/C=C\Cn1c(C(=O)c2cc(C)cc(C)c2)c(CC)c(=O)[nH]c1=O | 199 to 200
9 | CCOC(=O)c1cc(F)c(N2CCCC2)nc1Cl | 95
10 | Clc1cccc(OCCBr)c1Cl | 51 to 56
11 | CC1(C)CC(NC(=O)c2cc(C(C)(C)C)c(O)c(C(C)(C)C)c2)CC(C)(C)N1 | 256 to 258
12 | O=C1c2cc([N+](=O)[O-])ccc2OCCC1Br (stereo unspecified) | 115 to 118
13 | O=[N+]([O-])c1ccc(Cl)c(O)c1 | 115 to 117
14 | O=c1c2cccc(O)c2oc2cc(O)cc(O)c12 | 211 to 213
15 | CCC1(CC)CN(C(C)(C)C)C(=O)C(CC)(CC)N1OC(C)c1ccccc1 (stereo unspecified) | 85 to 90
16 | CCOC(=O)/C=C/c1ccc(Br)nc1 | 79 to 80
17 | CCN1Cc2cccc3scc(c23)S1(=O)=O | 156
18 | NC[C@H]1CN(c2ccc(N3CCOCC3=O)cc2)C(=O)O1 | 145 to 147
19 | O=c1ncc(F)cn1CCO | 134 to 136
20 | O=P(O)(O)OC(Cn1cncn1)(Cn1cncn1)c1ccc(F)cc1F | 223 to 224
21 | Nc1ccc(S(F)(F)(F)(F)F)cc1[N+](=O)[O-] | 132 to 135

Row | SMILES | melting point [°C]
22 | CCOC(=O)c1ccc2[nH]c([Si](C)(C)C)c(CCCO[Si](C)(C)C(C)(C)C)c2c1 | 115 to 116
23 | C[C@@H](c1ccccc1)N1C[C@H]2CCOC(=O)[C@H]2C1 | 86 to 87
24 | O=c1n(-c2ccc(N3CCNCC3)cc2)cnn1CC(F)(F)C(F)F | 155 to 157
25 | O=Cc1ccc(-c2ccc(-c3ccsc3)s2)s1 | 155 to 157
26 | C#CCN1CCC(C(C)(C)C)CC1 | 48 to 49
27 | CC(C)(C)c1cc(-n2nc3ccc(Cl)cc3n2)c(O)c(C(C)(C)C)c1 | 151 to 154
28 | Oc1ccc(C(c2ccc(O)cc2)c2ccccc2CN2CCN(c3ccccc3Cl)CC2)cc1 | 149 to 151
29 | CC(C)CNC(=O)NCCCl | 79.5
30 | ClCCN(CCCl)CCOc1cccc(Nc2c3ccccc3nc3c(OCCN(CCCl)CCCl)cccc23)c1 | 108 to 109
31 | Cc1ccc(S(=O)(=O)N2[C@H](CCCCC#N)CC[C@@H]2c2ccc(F)cc2)cc1 (racemic) | 79
32 | N#Cc1cc(-n2c3ccccc3[nH]c(=N)[nH]c3ccccc32)ccc1Cl | 225 to 228
33 | O=C(C=Cc1ccc(O)cc1)N1CCc2c([nH]c3ccccc23)C1c1ccc2c(c1)CCO2 (stereo unspecified) | 189
34 | CCOC(=O)c1cn(NC)c2cc3c(cc2c1=O)OCO3 | 211 to 218
35 | CC(C)Oc1ccc(-c2nn(C(C)c3oc4cccc(F)c4c(=O)c3-c3cccc(F)c3)c3ncnc(N)c23)cc1F (stereo unspecified) | 228 to 230
36 | CC(=O)N1CCC2(CC1)CC(=O)c1c(O)cccc1O2 | 114 to 116
37 | CN1CCC(N(C)c2nc(Nc3ccc(O)c(Cl)c3)nc(NC3CCCCCC3)n2)CC1 | 68
38 | Nc1cc(C(F)(F)F)cnc1N | 97 to 99
39 | CC(C#CC1CC(Oc2ccc(F)cc2Cl)C1)N(O)C(N)=O (single isomer, unassigned; (+)) | 160
40 | CCn1cc(C(=O)O)c(=O)c2cc(F)c(N3CCC(CN(C)C)C3)c(F)c21 (stereo unspecified) | 204 to 206
41 | CNC(=O)NCCSCc1ccccn1 | 63 to 66
42 | COC(=O)c1cc(N)c(F)c(Cl)n1 | 180 to 183

The remaining lines, values ahead:

Row | melting point [°C] | SMILES
43 | 177 | CCOC(=O)C1=C(COCCNc2nc(C(C)=O)c[nH]2)NC(C)=C(C(=O)OC)C1c1cccc(Cl)c1Cl (stereo unspecified)
44 | 67 to 68 | CCCNc1nc(-c2ccccc2)c(CCC(=O)OC)s1
45 | 178 to 180 | Cc1cc(Oc2ccc3nc(COc4ccc(CC5SC(=O)NC5=O)cc4)n(C)c3c2)cc(C)c1NC(=O)Nc1ccc([N+](=O)[O-])cc1 (stereo unspecified)
46 | 130 to 131 | O=C(Nc1ccc2c(c1)nc1n2CCC1)c1cc2nc(C(F)(F)F)ccc2n1Cc1ccncc1
47 | 74 to 75 | COc1ccc(OC)c2c1C(=O)C=C(SCCCCCCCCCCC(=O)NCC(C)C)C2=O
48 | 119 to 121 | COC(=O)CC(C#N)(C(=O)OC)c1cccc2ccc(OC)cc12 (stereo unspecified)
49 | 197 to 198 | CC(C)(C)c1ccc2c(c1)C(C(=O)O)c1ccccc1CO2 (stereo unspecified)
50 | 175 to 180 | CCCCCCCCCCCC(C(=O)NN)C(C(=O)Nc1c(OC)cc(OC)cc1OC)c1ccccc1 (stereo unspecified)
51 | 217 to 218 | Nc1ccc2c(c1)c1ccccc1n2CCC(=O)NCCO
52 | 240 to 243 | CC(C)c1cc(C(=O)Nc2ccc3[nH]c(C(=O)O)cc3c2)oc1C(C)C
53 | 204 to 205 | Fc1ccc(-c2n[nH]cc2-c2ccnc(Cl)n2)cc1
54 | 138 to 140 | CCOC(=O)c1cnc(-c2ccccc2)nc1-c1ccc([N+](=O)[O-])cc1
55 | 318 to 319 | O=C(O)Cn1c(=O)c(=O)[nH]c2cc(Cl)ccc21
56 | 107 to 108 | CCOC(=O)N(C(=S)NC(C)C)c1c(C(C)C)cc(Oc2ccccc2)cc1C(C)C
57 | > 250 | S=c1[nH]c2cc(Cl)cc(OCCNCc3ccccc3)c2[nH]1
58 | 193 to 195 | CNc1nc(-c2cccc(-c3cccc(-c4ccccc4)c3)c2)c2cc(OC)c(OC)cc2n1
59 | 283 to 284 | COc1cc2[nH]cc(-c3cc4c(Cl)c(F)cnc4[nH]3)c2nc1OC
60 | 91 to 93 | COc1cc(OC)c(C(C)=O)cc1OC
61 | 247 to 251 | CN(C)Cc1c(-c2ccccn2)[nH]c2ncnc(Nc3cccc(Cl)c3)c12
62 | 225 | CCOC(=O)C1=C(C)Nc2ccn(C)c(=O)c2C1c1ccccc1OC (stereo unspecified)
63 | 92 to 93 | COc1ccc2oc3cccc(NCCN4CCCC4)c3c(=O)c2c1
64 | 98 to 100 | COC(=O)CN(CCNC(=O)OC(C)(C)C)C(=O)Cc1cc2ccc(C)nc2[nH]c1=O
65 | 119 to 120 | O=C(c1ccccc1)[C@@]1([N+](=O)[O-])[C@@H]2C=C[C@@H](C2)[C@H]1c1ccccc1 (relative stereo)
66 | 139 to 141 | CCc1cccc(C)c1N(CCCC(=O)O)C(=O)CCN(C(C)=O)c1c(C)cccc1C
67 | 320 | N#Cc1c(N2CCN(C(=O)c3cccs3)CC2)c2cccnc2[nH]c1=O
68 | 110 to 111 | CCOC1=CC=CC(C=O)C1(OCc1ccccc1)[N+](=O)[O-] (stereo unspecified)
69 | 268 | Cc1cccc(-c2coc3c(O)c(O)ccc3c2=O)c1

Row | melting point [°C] | SMILES
70 | 100 to 102 | CCc1cc(C(=O)c2ccccc2Cl)c(NC)s1
71 | 222 to 224 | CCC(=O)N1c2ccccc2NC(=O)c2cscc21
72 | 125 | CC(Oc1ccc(N(C)c2nnc3cc(Cl)ccc3n2)cc1)C(=O)O (stereo unspecified)
73 | 229 to 231 | CC(=O)OC1CC2(C)C(Sc3ccccc3)=CCC2C2CCC3=CC(=O)C=CC3(C)C12F (stereo unspecified)
74 | 173 to 174 | CC(C)(C)c1ccc(CC[C@H](CC2CCCCC2)O[Si](C)(C)C(C)(C)C)cc1NC(=O)CC1c2ccccc2Oc2ccccc21
75 | 286 to 288 | CONC1=NC(=O)C(=Cc2cccc(-c3cc(F)c(O)c(C45CC6CC(CC(C6)C4)C5)c3)c2)S1
76 | 63 to 64 | COc1ccc(CS[C@@H]2C[C@@H](CNCc3ccccc3)N(S(C)(=O)=O)C2)cc1
77 | 149 to 151 | COc1cc(C=C(C=O)C(C=O)=Cc2ccc(OC(C)=O)c(OC)c2)ccc1OC(C)=O
78 | 126 to 127 | CCS(=O)(=O)CCOc1cc(C)c(-c2cccc(COc3ccc(CCC(=O)O)c(F)c3)c2)c(C)c1
79 | 65 to 69 | CCCCN(Cc1ccc(-c2ccccc2-c2nnn[nH]2)cc1)c1ncncc1C(=O)OCOC(C)=O
80 | 180 to 181 | COc1ccc2c3c([nH]c2c1)C(=S)C(CC1CCN(Cc2ccccc2)CC1)C3 (stereo unspecified)
81 | 141 to 142 | CCCNC(=O)c1nc(-c2ccccc2)c(-c2ccc(=O)n(C(C)C)n2)s1
82 | 124 to 126 | O=C(c1cccs1)c1cnn2c(-c3cccc(NC(=S)Nc4ccccc4)c3)ccnc12
83 | 168 to 170 | C[C@H]1C(=O)Nc2ccc(Cl)cc2N1C(=O)Oc1ccc(F)cc1
84 | 148 to 151 | CC1CCC(Oc2ccc(CC(=O)c3ccc4c(c3)CCC4)cc2)(C(=O)O)C1 (stereo unspecified)
85 | 124 to 126 | COC(=O)[C@@H]1[C@H](NC(=O)Cc2ccccc2)C(=O)N1Cc1ccc(OC)cc1OC (relative stereo)
86 | 137 to 140 | COC(=O)c1ccc(Cc2cn(C)c3ccc(C(=O)OC)cc23)c(OC)c1
87 | > 270 | CCn1c(=O)c2[nH]c(/C=C/c3cccc(F)c3)nc2n(CC)c1=O
88 | 215 to 220 | O=C1CC2Sc3nc(=O)c4ccccc4n3C2(c2ccc(Cl)cc2)O1 (stereo unspecified)
89 | 118 to 119 | COc1cc2c(cc1C(=O)COc1ccc(C(=O)OCc3ccccc3)c(O)c1)C(C)(C)CCC2(C)C
90 | 165 to 167 | CC(C)NCc1ccc(COc2cccc3c2CN(C2CCC(=O)NC2=O)C3=O)cc1 (stereo unspecified)
91 | 355 to 360 | O=C1c2cc(Cl)c(Cl)cc2-c2cc(O)cc3cccc1c23
92 | 153 to 154 | O=C(NCCCO)c1cccc(Nc2nccc(-c3ccnc(NCCCO)c3)n2)c1
93 | 95 to 110 | CN1C(=O)CC[C@]2(C)c3ccc(-c4c5ccccc5cc5ccccc45)cc3CC[C@@H]12
94 | 120 to 127 | CC(C)(C)CC(C)(C)c1cc(N=Nc2cc(C(F)(F)F)ccc2Cl)c(O)c(C(C)(C)c2ccccc2)c1
95 | 189 to 190 | CCOC(=O)CNC(=S)NC(=Nc1ccc([N+](=O)[O-])cc1)c1ccccc1
96 | 225 to 227 | COC(=O)c1scc(-c2ccccc2)c1S(=O)(=O)NC(=O)Nc1nc(OC)cc(OC)n1
